Data on two molecules can be found in patent US5945450A, “Naphthalene derivative” (Teijin Limited, priority 1994, dated 1999).

Read-outs that look alike come from different tables or passages of the source.

The test system of assay [1] is TF (tissue factor). The experiment in a line: Inhibitory effects on the TF production in LPS-stimulated human peripheral blood monocytes. The format is cell-based. The following applies: Monocyte, LPS 1 μg/ml, 16 hours. Here is the method:
Peripheral venous blood was sampled from the healthy person, and submitted to density-gradient centrifugation so that monocytes might be isolated. The monocytes thus obtained were washed with minimum essential medium (MEM, Gibco) and suspended in a culture medium (RPMI-1640(Gibco)+25 mM HEPES buffer+100 μg/ml streptomycin+100 U/ml penicillin G+2 mM L-glutamine) to give a suspension with a density of 1×10^6 cells/ml. A 0.15 ml of the cell suspension was placed onto each of the wells of a 96-well microplate, to which the compound of this invention as described in Tables 4-1 to 4-2 was added (0.05 ml of the culture medium), and the assembly was placed for 1 hour in a CO2 incubator for cultivation. Then, LPS (lipopolysaccarides, E. coli 0111B4, Difco) 1 μg/ml was added thereto, and the assembly was further cultured for 16 hours. After the supernatant being removed, the residue was washed with physiological saline, 0.1 ml of 16 mM OG (n-octyl-β-D-glucopyranoside) was added thereto, and the assembly was stirred to make TF soluble. A 0.2 ml of physiological saline was added to each residue (final dilution was […]) and this preparation was used for determination of the coagulation stimulating activity (TF-like activity). The test compound had been dissolved in DMSO to give a 0.1 M solution which was diluted with the culture medium prior to use. The final concentration of DMSO was 0.01% or less.
To each well of the microplate, 50 μl of human plasma and 50 μl of the test sample prepared as above for determination of the coagulation stimulating activity, or 50 μl of standard thromboplastin (human thromboplastin, Thromborel S, Behringwerke) were added. The microplate was incubated at 37° C. for 5 minutes, to which was added 25 mM CaCl2 (50 μl/well) containing phosphorous lipids (Platelin, Organon Teknica) at a concentration of […] to initiate coagulation. Coagulation was determined on the basis of absorption at 540 nm, and the measurement lasted 7 to 20 minutes. The data were analyzed with a data analyzing software SOFTMax (Molecular Devices) and the maximum rate time was taken as the coagulation time. The logarithmic values of the coagulation times and standard thromboplastin concentrations are plotted, and a regression parabola was drawn among the dots to give a test curve. From the curve, the inhibitory effect (%) of a given test compound on TF production was calculated. (Refer to J. Imnmunol. Methods, 133:21-29, 1990, and Proc. Natl. Acad. Sci. USA, 89:10370-10374, 1992).

In assay [2] the test system is human IgE antibodies. The experiment in a line: In vitro inhibition of the production of human IgE antibodies (lymphocytes + IL-4 + anti CD40Ab + IL-10, ELISA). The format is cell-based. Conditions: Lymphocyte, read-out: Inhibition of antibody production (%) IgE. Here is the method:
(§1) According to the method described in J. Immunol., 146:1836-1842, 1991 and J. Immunol., 147:8-13, 1991, the concentrations of IgE and IgG antibodies were measured by the procedures described below.
(§2) Peripheral venous blood was sampled from the healthy person, and submitted to density-gradient centrifugation to isolate lymphocytes. The lymphocytes thus obtained were washed and suspended in a culture medium (RPMI-1640 (provided by Gibco)+10% heat-inactivated FCS (Whittaker)+100 µg/ml streptomycin+100 U/ml penicillin+2mM L-glutamine). The cell suspensions were cultured for 1 week in the presence/absence of the compounds of this invention at the concentrations as described in Tables 3-1 to 3-2 together with human interleukin 4 (IL-4, Genzyme)([…]), anti CD40 antibodies (anti CD40Ab, Biosource, clone B-B20)([…]) and human interleukin 10 (IL-10, Genzyme)([…]). The culture medium was supplied freshly to the cell suspension, and the mixture was further cultured for another week. The supernatant was sampled and the concentrations of IgE and IgG antibodies therein were measured by sandwich ELISA.
(§3) The ELISA was based, for the assay of IgE antibodies, on the use of rabbit anti-human IgE() antibodies (ICN) as the primary antibody and biotin-linked anti-human IgE monoclonal antibodies (G7-26, PharMingen) as the secondary antibody. For the assay of IgG antibodies, anti-human IgG monoclonal antibodies (G18-145, PharMingen) and biotin-linked donkey anti-human IgG antibodies (H+L)(Jackson) were used for the primary and secondary antibodies, respectively. For the assay of both IgE and IgG antibodies, Avidin-Biotin-Horse Radish Peroxidase (ABC kit, Vector Lab) and TMB (3,3',5,5'-tetramethylbenzidine) microwell peroxidase substrate system (Kirkegaard & Perry Laboratories Inc.) were used as the enzyme and the substrate, respectively. The assays were made by the use of conventionally known ELISA.
(§4) The inhibitory effect (%) of a given compound of this invention on the production of the antibody was calculated with respect to the concentration of the same antibody when the compound was not coexistent (refer to Uejima et al., American Academy of Allergy and Immunology, Proceedings of 1995 Annual Meeting, Program No. 818).

Assay [3] concerns human IgG antibodies. The experiment in a line: In vitro inhibition of human IgG antibody production (lymphocytes + IL-4 + anti CD40Ab + IL-10, ELISA). The following applies: Lymphocyte. The format is cell-based. Here is the method: as §1, §2, §3, §4
Assay [4] relates to mast cells of the rat. The experiment in a line: Inhibition of histamine release from rat mast cells. In kind it is cell-based, rat (SD strain). The following applies: Mast cell, read-out: Inhibiton of histamine release (%). Here is the method: A 1 ml of anti-DNP-Ascaris (Didets) anti-serum (prepared as described in J. Immunol., 106:1002, 1971) was injected into the peritoneal cavity of 5 SD strain rats of 7 weeks old. Forty eight hours later, the animals were bled to death, and 20 ml of HBSS (Hanks balanced salt solution) was injected into their peritoneal cavity. After about 90 second massaging, the HBSS washing was recovered, and cells released into the peritoneal cavity were collected from the washing. The ascitic cells thus collected were washed once with 0.1% BSA/Tyrode-HEPES, and then resuspended in 0.1% BSA/Tyrode-HEPES to give a suspension with a density of 5×10^6 cells/ml. The cell suspension was incubated at 37° C. for 10 minutes in the presence/absence of a test substance, that is, the compound listed in Table 6.
To the resulting mixture was added a histamine releasing agent (20 μg/ml of DNP-Ascaris (DNP-As) (Didets)+25 μg/ml of phosphatidylserine (PS) or 0.2 μg/ml of calcium ionophore A23187), and the reaction was allowed to proceed at 37° C. for 20 minutes. Then, the cell suspension was centrifuged to obtain supernatant. Histamine released in the supernatant was determined by the fluorescent method (J. Pharmacol. Exp. Ther. 127:182, 1959). Inhibitory effect (%) of a given compound of this invention on histamine release was calculated relative to the histamine release when the compound was not coexistent.

Setting [5] is: releasing agent DNP-As + PS, 10 μM.
Setting [6] is: releasing agent DNP-As + PS, 100 μM.
Setting [7] is: releasing agent calcium ionophore A23187, 10 μM.
Where [8] appears, read: releasing agent calcium ionophore A23187, 100 μM.

In the case of `O=C(Nc1ccccc1C(=O)O)c1ccc(Oc2ccc3ccccc3c2)cc1` [Compound No. 1104, 2-(4-(2-naphtyloxy)benzamide)benzoic Acid], the figures for the inhibition at 1 µM in assay [1] (1 μM), in assay [2] and in assay [3] were 45.3%, 35.9% and -4.7%, respectively. In addition, the inhibition at 3 µM is 90.4% in assay [1], 85.6% in assay [2] and -6.2% in assay [3]. For the same molecule, the inhibition at 10 µM is 100% in assay [1] (10 μM); 98.2% in assay [2]; 20.5% in assay [3]; 42.7% in assay [4] (setting [5]); 75.4% in assay [4] (setting [7]). The inhibition at 100 µM amounted to 84.2% in assay [4] (setting [6]) and 78% in assay [4] (setting [8]).
With `O=C(Cc1ccc(Oc2ccc3ccccc3c2)cc1)Nc1ccccc1C(=O)O` [Compound No. 1126, 2-(4-(2-naphtyloxy)phenylacetamide)benzoic acid], the inhibition at 3 µM worked out at 26.5% in assay [1], 93.5% in assay [2] and 35.4% in assay [3]. The results for the inhibition at 1 µM in assay [2] and in assay [3] were 63.9% and -5%, respectively. Besides, the inhibition at 10 µM stood at 97.9% in assay [2], 84% in assay [3], 25.4% in assay [4] (setting [5]) and 54.2% in assay [4] (setting [7]). For the same molecule, the figures for the inhibition at 100 µM in assay [4] (setting [6]) and in assay [4] (setting [8]) were 90.2% and 79.8%, respectively.
